# Tested on: HPAECs
# Experiment: HPAEC proliferation, cell counts by Hoechst-stained nuclei (Celigo)
# Format: cell-based, Human
# Conditions: Forskolin 40 μM, FTY720-P 50 nM, Methylprednisolone 1 μM; MCDB131
# Experimental: HPAECs were seeded at low initial confluency (3000-5000 cells/cm^2) to study their growth on Collagen type-I coated culture dishes. Barrier agonists were added at 0 hours (FIG. 10A) or at 48 hours (FIG. 10B) and were maintained through the remainder of culture. Barrier agonist compounds, when added to the culture medium (MCDB131), were added at the following concentrations: Forskolin (40 μM), FTY720-P (50 nM), Methylprednisolone (1 μM). Cell counts were measured through individual quantification of nuclei, stained with Hoechst dye and imaged on the Celigo Imaging Cytometer (Nexcelom Bioscience).
structure (smiles),measurement,value
"CCCCCCCCc1ccc(CC[C@](N)(CO)COP(=O)(O)O)cc1 [FTY720P, fingolimod-phosphate]",endothelial cell proliferation (summary statement of Example 6),no reduction in endothelial proliferation
